# Assay results published in patent US10676467B2 (Washington University, priority 2017, dated 2020).
# Where “and” joins values, the source holds several entries; their conditions need not be identical. Equal entries are not always repeated. Entries after “also recorded” stand apart in the source; their conditions may differ.
# Key:
# [1] = 5 min p.i., literature value; cited from earlier work
# S1P1 [2] = target: T1, S1P1 (Rattus norvegicus (Rat), UniProt P48303); test: In vitro autoradiography of [18F]12a in rat brain slices, SEW2871 blocking; assay type: binding; conditions: rat brain sections, ~6 nM tracer, 10 μM SEW2871, 60 min RT
# Procedure: Adult female Lewis rats (n=2, 100-125 g, Charles River) were used to perform the autoradiography study. The rats (n=2) was euthanized and the brains were collected and cut into 20 μm sequential sections using a Microm cryotome and mounted on glass slides. […] Following the incubation, the brain sections were washed and exposed to the Storage Phosphor Screen in an imaging cassette overnight in −20° C. at dark for 12 h. The distribution of radioactivity was visualized by a Fuji Bio-Imaging Analyzer FLA-7000 (Fuji Photo Film, Tokyo, Japan). Photo-stimulated luminescence (PSL) from the brain slices was quantified using Multi Gauge v3.0 software (Fuji Photo Film Co., Tokyo, Japan). Data were background-corrected, and expressed as photo-stimulated luminescence signals per square millimeter (PSL/mm^2).
# S1P1 [3] = target: T1, S1P1; test: MicroPET and tracer kinetic modeling in EAE rat model, lumbar spinal cord; assay type: in vivo; conditions: for 2TCM Vd / LoganAIF Vd: lumbar spinal cord, n = 3-4
# Procedure: MicroPET scans were performed using an Inveon PET/CT system (Siemens Inc., Knoxville, Tenn.). […] Each rat was secured to a custom-designed acrylic bed equipped with a nosecone for gas anesthesia. PET/CT scans were conducted under 1.5-2% isoflurane anesthesia with the rat placed in transaxial position and centered with the T13 vertebral spine in the field of view. […] A list mode protocol was used with 60-min dynamic data acquisition.
# PET image data was processed using filter back projection algorithm with attenuation and scatter corrections. The data were reconstructed per time frame employing an iterative reconstructional algorithm (three-dimensional ordered subset expectation maximization (3D-OSEM), maximum a posteriori (MAP)) and corrected for decay, random coincidences, scatter, and attenuation. […] Image data was analyzed using Inveon Research Workstation software IRW 4.2 (Siemens Inc., Knoxville, Tenn.). The regions of interest (ROI), the lumbar spinal cord and bilateral common carotid arteries, were drawn over the co-registered PET/CT images using the standard protocol published previously. Time-activity curves (TACs) were obtained and were expressed as % ID/g. A two-tailed t-test was used for the comparison of the tracer uptake in EAE rat lumbar spinal cord versus sham. A P value less than 0.05 was considered statistically significant. Time-activity curves were further analyzed using 2-tissue-compartment model (2TCM), as well as Logan graphical analysis, using the ROI over bilateral common carotid arteries for image-based arterial blood input function.
# [4] = Nonhuman primate (NHP) brain microPET scan; assay type: in vivo, macaques; conditions: normal NHP
# Procedure: To examine if newly-synthesized S1P1 radioligands could cross the BBB of NHPs, two male macaques (9-10 kg) were studied with a microPET Focus 220 scanner (Concorde/CTI/Siemens Microsystems, Knoxville, Tenn.). The welfare of the animals conformed to the requirements of National Institutes of Health (NIH). This work was conducted at the Nonhuman Primate Facility of Washington University in St. Louis with approval from the IACUC. Animals were maintained in facilities with 12-hour dark and light cycles, given access to food and water ad libitum and provided a variety of psychologically enriching tasks to prevent inappropriate deprivation. Animals were scanned under anesthesia (induced with ketamine and glycopyrrolate and maintained with inhalation isoflurane). Core temperature was kept about 37° C. with a heated water blanket. The head was secured in a head holder with the brain in the center of the field of view.
# PET scans were collected from O-120 min with the following time frames: 3×1 min, 4×2 min, 3×3 min and 20×5 min. Emission data were corrected for dead time, scatter and attenuation and then reconstructed to a final resolution of 2.0 mm full-width half maximum in all 3 dimensions at the center of the field of view. PET and MRI images were co-registered using automated image registration program (AIR). For quantitative analyses, three-dimensional ROI (the global brain) was identified on the MRI and transformed to the reconstructed PET images to obtain time-activity curves. Activity measures were standardized to body weight and the dose of radioactivity injected to yield standardized uptake value (SUV).
# [5] = Ex vivo biodistribution in female Lewis rats; parameters: species or system rat; conditions: for Tissue uptake, Blood / Tissue uptake, Bone / Tissue uptake, Brain / Tissue uptake, Fat / Tissue uptake, Heart / Tissue uptake, Kidney / Tissue uptake, Liver / Tissue uptake, Lung / Tissue uptake, Muscle / Tissue uptake, Pancreas / Tissue uptake, Spleen / Tissue uptake, Thymus: n = 4
# Excerpt: Organs of blood, heart, lung, muscle, fat, pancreas, spleen, kidney, liver, thymus, brain, and bone were dissected and collected for counting. All the samples were counted with a dilution of the injectate on an automated well counter (Beckman Gamma 8000 well counter). Tissues were weighed and the uptake was reported as background and decay-corrected percent injected dose per gram (% ID/g).
# The whole brains were quickly harvested and dissected into regions of cerebellum, brain stem, cortex, striatum, thalamus, and hippocampus, the remainder of the brain was also collected to determine the total brain uptake. Organs of blood, heart, lung, muscle, fat, pancreas, spleen, kidney, liver, thymus, and bone were also dissected and collected for counting. All the samples were counted with a dilution of the injectate on an automated well counter (Beckman Gamma 8000 well counter). Tissues were weighed and the uptake was reported as background and decay-corrected percent injected dose per gram (% ID/g).
# T1 sequence (P48303 whole entry): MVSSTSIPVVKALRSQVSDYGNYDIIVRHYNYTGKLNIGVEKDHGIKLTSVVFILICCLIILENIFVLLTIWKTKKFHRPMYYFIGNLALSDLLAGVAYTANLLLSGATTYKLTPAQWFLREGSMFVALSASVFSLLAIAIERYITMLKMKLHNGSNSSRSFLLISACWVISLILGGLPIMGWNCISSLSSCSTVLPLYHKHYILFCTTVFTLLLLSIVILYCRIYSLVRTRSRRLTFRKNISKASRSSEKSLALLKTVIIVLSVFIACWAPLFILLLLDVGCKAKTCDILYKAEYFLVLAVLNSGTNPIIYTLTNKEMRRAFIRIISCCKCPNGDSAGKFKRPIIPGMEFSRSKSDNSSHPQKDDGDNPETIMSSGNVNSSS
structure (smiles),measurement,setting,value
O=C(O)C1CN(Cc2ccc(-c3noc(-c4ccc(OCC[18F])c(C(F)(F)F)c4)n3)cc2)C1 [[^18F]4],Brain uptake of previous radiotracer,[1],0.49 % ID/g
OCCOCc1ccc(-c2noc(-c3ccc(OCC[18F])c(C(F)(F)F)c3)n2)cc1 [[^18F]12a],Reduction of radioactivity by SEW2871 blocking,S1P1 [2],~30%
same,Visualization of rat lumbar spinal cord by microPET,S1P1 [3]; EAE and sham rats,clear visualization of lumbar spinal cord
same,2TCM Vd,S1P1 [3]; EAE rats,2.18 ± 0.20 mL/g
same,LoganAIF Vd,S1P1 [3]; EAE rats,2.18 ± 0.20 mL/g
same,"Tracer uptake in lumbar spinal cord, EAE","S1P1 [3]; EAE rats, summed SUV values 10-60 min post injection, n=3-4",1.42±0.14 SUV
same,2TCM Vd,S1P1 [3]; Sham rats,1.80 ± 0.20 mL/g
same,LoganAIF Vd,S1P1 [3]; Sham rats,1.77 ± 0.24 mL/g
same,Increase of tracer uptake in EAE rat lumbar spinal cord compared with shams,"S1P1 [3]; microPET, 10-60 min post injection",29.5%
same,Averaged tracer uptake in sham rat spinal cord,"S1P1 [3]; sham rats, 10-60 min post injection",1.0-1.1
same,"Tracer uptake in lumbar spinal cord, sham","S1P1 [3]; sham rats, summed SUV values 10-60 min post injection, n=3-4",1.10±0.06 SUV
same,Max SUV value in total brain,[4]; microPET,~2.9 SUV
same,"Blood-brain barrier crossing, NHP brain","[4]; microPET, listed as 18F-TZ4877",able to cross the blood brain barrier; also recorded: able to cross the BBB
same,Time to max SUV in total brain,[4]; post injection,~5 min
same,"Tissue uptake, Blood",[5]; 5 min p.i.,0.36 % ID/g and 0.36 ± 0.04 % ID/g
same,"Tissue uptake, Blood",[5]; 30 min p.i.,0.51 ± 0.01 % ID/g
same,"Tissue uptake, Blood",[5]; 60 min p.i.,0.57 ± 0.03 % ID/g
same,"Tissue uptake, Blood",[5]; 120 min p.i.,0.66 ± 0.04 % ID/g
same,"Tissue uptake, Bone",[5]; 5 min p.i.,0.40 ± 0.04 % ID/g
same,"Tissue uptake, Bone",[5]; 30 min p.i.,0.34 ± 0.02 % ID/g
same,"Tissue uptake, Bone",[5]; 60 min p.i.,0.34 ± 0.01 % ID/g
same,"Tissue uptake, Bone",[5]; 120 min p.i.,0.42 ± 0.02 % ID/g
same,"Tissue uptake, Brain",[5]; 5 min p.i.,1.31 % ID/g and 1.31 ± 0.06 % ID/g
same,"Tissue uptake, Brain",[5]; 30 min p.i.,1.34 ± 0.08 % ID/g
same,"Tissue uptake, Brain",[5]; 60 min p.i.,1.13 ± 0.05 % ID/g
same,"Tissue uptake, Brain",[5]; 120 min p.i.,0.87 ± 0.04 % ID/g
same,"Tissue uptake, Fat",[5]; 5 min p.i.,0.24 % ID/g and 0.24 ± 0.03 % ID/g
same,"Tissue uptake, Fat",[5]; 30 min p.i.,1.63 ± 0.36 % ID/g
same,"Tissue uptake, Fat",[5]; 60 min p.i.,1.50 ± 0.08 % ID/g
same,"Tissue uptake, Fat",[5]; 120 min p.i.,1.91 ± 0.19 % ID/g
same,"Tissue uptake, Heart",[5]; 5 min p.i.,1.16 % ID/g and 1.16 ± 0.01 % ID/g
same,"Tissue uptake, Heart",[5]; 30 min p.i.,1.01 ± 0.08 % ID/g
same,"Tissue uptake, Heart",[5]; 60 min p.i.,0.85 ± 0.04 % ID/g
same,"Tissue uptake, Heart",[5]; 120 min p.i.,0.74 ± 0.03 % ID/g
same,"Tissue uptake, Kidney",[5]; 5 min p.i.,2.14 % ID/g and 2.14 ± 0.14 % ID/g
same,"Tissue uptake, Kidney",[5]; 30 min p.i.,1.43 % ID/g and 1.43 ± 0.08 % ID/g
same,"Tissue uptake, Kidney",[5]; 60 min p.i.,1.18 ± 0.04 % ID/g
same,"Tissue uptake, Kidney",[5]; 120 min p.i.,1.01 ± 0.04 % ID/g
same,"Tissue uptake, Liver",[5]; 5 min p.i.,4.87 % ID/g and 4.87 ± 0.27 % ID/g
same,"Tissue uptake, Liver",[5]; 30 min p.i.,3.58 % ID/g and 3.58 ± 0.28 % ID/g
same,"Tissue uptake, Liver",[5]; 60 min p.i.,3.32 ± 0.33 % ID/g
same,"Tissue uptake, Liver",[5]; 120 min p.i.,3.23 ± 0.10 % ID/g
same,"Tissue uptake, Lung",[5]; 5 min p.i.,1.31 % ID/g and 1.31 ± 0.01 % ID/g
same,"Tissue uptake, Lung",[5]; 30 min p.i.,1.20 ± 0.06 % ID/g
same,"Tissue uptake, Lung",[5]; 60 min p.i.,1.01 ± 0.04 % ID/g
same,"Tissue uptake, Lung",[5]; 120 min p.i.,0.87 ± 0.02 % ID/g
same,"Tissue uptake, Muscle",[5]; 5 min p.i.,0.28 % ID/g and 0.28 ± 0.02 % ID/g
same,"Tissue uptake, Muscle",[5]; 30 min p.i.,0.54 ± 0.01 % ID/g
same,"Tissue uptake, Muscle",[5]; 60 min p.i.,0.49 ± 0.03 % ID/g
same,"Tissue uptake, Muscle",[5]; 120 min p.i.,0.42 ± 0.01 % ID/g
same,"Tissue uptake, Pancreas",[5]; 5 min p.i.,2.19 % ID/g and 2.19 ± 0.04 % ID/g
same,"Tissue uptake, Pancreas",[5]; 30 min p.i.,1.52 % ID/g and 1.52 ± 0.04 % ID/g
same,"Tissue uptake, Pancreas",[5]; 60 min p.i.,1.21 ± 0.10 % ID/g
same,"Tissue uptake, Pancreas",[5]; 120 min p.i.,0.98 ± 0.05 % ID/g
same,"Tissue uptake, Spleen",[5]; 5 min p.i.,1.14 % ID/g and 1.14 ± 0.10 % ID/g
same,"Tissue uptake, Spleen",[5]; 30 min p.i.,0.79 % ID/g and 0.79 ± 0.06 % ID/g
same,"Tissue uptake, Spleen",[5]; 60 min p.i.,0.65 ± 0.02 % ID/g
same,"Tissue uptake, Spleen",[5]; 120 min p.i.,0.55 ± 0.03 % ID/g
same,"Tissue uptake, Thymus",[5]; 5 min p.i.,0.79 % ID/g and 0.79 ± 0.12 % ID/g
same,"Tissue uptake, Thymus",[5]; 30 min p.i.,0.68 ± 0.06 % ID/g
same,"Tissue uptake, Thymus",[5]; 60 min p.i.,0.58 ± 0.04 % ID/g
same,"Tissue uptake, Thymus",[5]; 120 min p.i.,0.51 ± 0.05 % ID/g
same,Defluorination in vivo (bone uptake 5 to 120 min),[5]; bone radioactivity unchanged,no metabolic defluorination in vivo
